Source: patent US10793568B2, “Hormone receptor modulators for treating metabolic conditions and disorders” (ARDELYX, INC., priority 2016, dated 2020)
Read-outs that look alike come from different tables or passages of the source.

How the values were obtained:
[1] = molecular target: human Farnesoid X receptor ligand-binding domain/Gal4 DNA binding domain chimera (Homo sapiens (Human), UniProt Q96RI1); assay: Cell-based assay of FXR activation (FXR-UAS-bla HEK 293T beta-lactamase reporter); settings: cellular FXR beta-lactamase reporter assay; for Emax: HEK-293T, extent of activation relative to GW4064, read-out: % Efficacy; for EC50: FXR-UAS-bla HEK 293T cells, 16 h, pEC50 = -log EC50
human Farnesoid X receptor ligand-binding domain/Gal4 DNA binding domain chimera, sequence (Q96RI1 262-486, change not shown): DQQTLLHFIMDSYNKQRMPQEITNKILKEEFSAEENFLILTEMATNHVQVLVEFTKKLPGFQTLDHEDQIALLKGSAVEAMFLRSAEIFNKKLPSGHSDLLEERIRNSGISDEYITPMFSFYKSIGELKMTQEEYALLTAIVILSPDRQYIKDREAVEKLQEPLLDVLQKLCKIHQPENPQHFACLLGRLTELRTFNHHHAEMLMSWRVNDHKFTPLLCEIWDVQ
human Farnesoid X receptor ligand-binding domain/Gal4 DNA binding domain chimera, sequence (P04386 1-147 partner): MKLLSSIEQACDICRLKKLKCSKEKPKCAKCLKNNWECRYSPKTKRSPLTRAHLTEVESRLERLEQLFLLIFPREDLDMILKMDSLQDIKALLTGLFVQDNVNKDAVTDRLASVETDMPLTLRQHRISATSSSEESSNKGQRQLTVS
Procedure, shortened: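 Readout is cleavage of the CCF4 FRET substrate (409 nm excitation, blue 447 nm signal) by beta-lactamase, expressed under UAS control after a Gal4–human FXR LBD chimera is activated in HEK 293T cells. Compounds were added as 3-fold dilutions for 16 h at 37 °C in 2% charcoal-stripped FBS medium. Curves were fit to a 3-parameter logistic equation to give pEC50, with % activation relative to GW4064.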

[2] = molecular target: ligand binding domain of human FXR (Homo sapiens (Human), UniProt Q96RI1); assay: FXR ligand binding assay (LanthaScreen TR-FRET, SRC2-2 peptide recruitment); settings: for Emax: read-out: % Efficacy
ligand binding domain of human FXR, sequence (Q96RI1 262-486): as the sequence (Q96RI1 262-486, change not shown) above

[3] = -log EC50, concentration required to produce 50% activation
[4] = extent of activation relative to GW4064

SMILES: O=C(O)c1ccc(N2C[C@@H]3C[C@H]2C[C@H]3OCc2c(-c3c(Cl)cccc3Cl)noc2C2CC2)cc1 [Compound I-52, 4-[(1S,4S,5R)-5-[[5-cyclopropyl-3-(2,6-dichlorophenyl)-1,2-oxazol-4-yl]methoxy]-2-azabicyclo[2.2.1]heptan-2-yl]benzoic acid]
- Emax [1]: 111%
- EC50 [1]: 1 nM
- pEC50 [2, 3]: 8.8
- Emax [2, 4]: 148%

SMILES: O=C(O)c1ccc(N2C[C@@H]3C[C@H]2C[C@H]3OCc2c(-c3c(Cl)cccc3Cl)noc2C2CC2)c(F)c1 [Compound I-53, 4-[(1S,4S,5R)-5-[[5-cyclopropyl-3-(2,6-dichlorophenyl)-1,2-oxazol-4-yl]methoxy]-2-azabicyclo[2.2.1]heptan-2-yl]-3-fluorobenzoic acid]
- Emax [1]: 113%
- EC50 [1]: 0.398 nM
- pEC50 [2, 3]: 8.7
- Emax [2, 4]: 145%

SMILES: O=C(O)c1cc(F)c(N2C[C@@H]3C[C@H]2C[C@H]3OCc2c(-c3c(Cl)cccc3Cl)noc2C2CC2)c(F)c1 [Compound I-54, 4-[(1S,4S,5R)-5-{[5-cyclopropyl-3-(2,6-dichlorophenyl)-1,2-oxazol-4-yl]methoxy}-2-azabicyclo[2.2.1]heptan-2-yl]-3,5-difluorobenzoic Acid]
- Emax [1]: 101%
- EC50 [1]: 0.316 nM
- EC50 [2, 3]: 1.58 nM
- Emax [2, 4]: 158%

SMILES: N#Cc1cc(F)c(N2C[C@@H]3C[C@H]2C[C@H]3OCc2c(-c3c(Cl)cccc3Cl)noc2C2CC2)c(F)c1 [Compound I-54a, 4-[(1S,4S,5R)-5-[[5-cyclopropyl-3-(2,6-dichlorophenyl)-1,2-oxazol-4-yl]methoxy]-2-azabicyclo[2.2.1]heptan-2-yl]-3,5-difluorobenzonitrile]
- Emax [1]: 112%
- EC50 [1]: 31.6 nM
- pEC50 [2, 3]: 7.0
- Emax [2, 4]: 162%

SMILES: O=C(O)c1ccc(N2C[C@@H]3C[C@H]2C[C@H]3OCc2c(-c3c(Cl)cccc3Cl)noc2C2CC2)nc1 [Compound I-55, 6-[(1S,4S,5R)-5-{[5-cyclopropyl-3-(2,6-dichlorophenyl)-1,2-oxazol-4-yl]methoxy}-2-azabicyclo[2.2.1]heptan-2-yl]pyridine-3-carboxylic Acid]
- Emax [1]: 104%
- EC50 [1]: 3.16 nM
- pEC50 [2, 3]: 7.9
- Emax [2, 4]: 121%

SMILES: O=C(O)c1ccc(N2C[C@@H]3C[C@H]2C[C@H]3OCc2c(-c3c(Cl)cccc3Cl)noc2C2(F)CC2)cc1 [Compound I-56, 4-[(1S,4S,5R)-5-{[3-(2,6-dichlorophenyl)-5-(1-fluorocyclopropyl)-1,2-oxazol-4-yl]methoxy}-2-azabicyclo[2.2.1]heptan-2-yl]benzoic Acid]
- Emax [1]: 125%
- EC50 [1]: 2 nM
- pEC50 [2, 3]: 8.5
- Emax [2, 4]: 137%

SMILES: O=C(O)c1ccc(N2C[C@@H]3C[C@H]2C[C@H]3OCc2c(-c3c(Cl)cccc3Cl)noc2C2(F)CC2)c(F)c1 [Compound I-57, 4-[(1S,4S,5R)-5-{[3-(2,6-dichlorophenyl)-5-(1-fluorocyclopropyl)-1,2-oxazol-4-yl]methoxy}-2-azabicyclo[2.2.1]heptan-2-yl]-3-fluorobenzoic Acid]
- Emax [1]: 109%
- EC50 [1]: 1 nM
- pEC50 [2, 3]: 7.9
- Emax [2, 4]: 146%

SMILES: CS(=O)(=O)NC(=O)c1ccc(N2C[C@@H]3C[C@H]2C[C@H]3OCc2c(-c3c(Cl)cccc3Cl)noc2C2CC2)cc1 [Compound I-58, 4-[(1S,4S,5R)-5-{[5-cyclopropyl-3-(2,6-dichlorophenyl)-1,2-oxazol-4-yl]methoxy}-2-azabicyclo[2.2.1]heptan-2-yl]-N-methanesulfonylbenzamide]
- Emax [1]: 104%
- EC50 [1]: 0.501 nM
- pEC50 [2, 3]: 8.4
- Emax [2, 4]: 153%

SMILES: CCCS(=O)(=O)NC(=O)c1ccc(N2C[C@@H]3C[C@H]2C[C@H]3OCc2c(-c3c(Cl)cccc3Cl)noc2C2CC2)cc1 [Compound I-59, 4-[(1S,4S,5R)-5-{[5-cyclopropyl-3-(2,6-dichlorophenyl)-1,2-oxazol-4-yl]methoxy}-2-azabicyclo[2.2.1]heptan-2-yl]-N-(propane-1-sulfonyl)benzamide]
- Emax [1]: 103%
- EC50 [1]: 0.1 nM
- pEC50 [2, 3]: 8.2
- Emax [2, 4]: 176%

SMILES: O=C(NS(=O)(=O)C1CC1)c1ccc(N2C[C@@H]3C[C@H]2C[C@H]3OCc2c(-c3c(Cl)cccc3Cl)noc2C2CC2)cc1 [Compound I-60, N-(cyclopropanesulfonyl)-4-[(1S,4S,5R)-5-[[5-cyclopropyl-3-(2,6-dichlorophenyl)-1,2-oxazol-4-yl]methoxy]-2-azabicyclo[2.2.1]heptan-2-yl]benzamide]
- Emax [1]: 105%
- EC50 [1]: 0.2 nM
- pEC50 [2, 3]: 8.2
- Emax [2, 4]: 170%

SMILES: CCCS(=O)(=O)NC(=O)c1ccc(N2C[C@@H]3C[C@H]2C[C@H]3OCc2c(-c3c(Cl)cccc3Cl)noc2C2CC2)c(F)c1 [Compound I-61, 4-[(1S,4S,5R)-5-{[5-cyclopropyl-3-(2,6-dichlorophenyl)-1,2-oxazol-4-yl]methoxy}-2-azabicyclo[2.2.1]heptan-2-yl]-3-fluoro-N-(propane-1-sulfonyl)benzamide]
- Emax [1]: 106%
- EC50 [1]: 0.0631 nM
- pEC50 [2, 3]: 8.7
- Emax [2, 4]: 174%

SMILES: O=C(NS(=O)(=O)C1CC1)c1ccc(N2C[C@@H]3C[C@H]2C[C@H]3OCc2c(-c3c(Cl)cccc3Cl)noc2C2CC2)c(F)c1 [Compound I-62, N-(cyclopropanesulfonyl)-4-[(1S,4S,5R)-5-{[5-cyclopropyl-3-(2,6-dichlorophenyl)-1,2-oxazol-4-yl]methoxy}-2-azabicyclo[2.2.1]heptan-2-yl]-3-fluorobenzamide]
- Emax [1]: 112%
- EC50 [1]: 0.158 nM
- pEC50 [2, 3]: 7.9
- Emax [2, 4]: 188%

SMILES: O=C(O)c1cc(F)c2nc(N3C[C@H]4C[C@@H]3[C@H](OC(=O)c3c(-c5c(Cl)cccc5Cl)noc3C3CC3)C4)sc2c1 [Compound I-63, 2-[(1R,4S,6R)-6-[5-cyclopropyl-3-(2,6-dichlorophenyl)-1,2-oxazole-4-carbonyloxy]-2-azabicyclo[2.2.1]heptan-2-yl]-4-fluoro-1,3-benzothiazole-6-carboxylic Acid]
- EC50 [1]: < 31600 nM
- pEC50 [2, 3]: 8.7
- Emax [2, 4]: 13%

SMILES: O=C(O)c1cc(F)c2nc(N3C[C@@H]4C[C@H](OC(=O)c5c(-c6c(Cl)cccc6Cl)noc5C5CC5)[C@H]3C4)sc2c1 [Compound I-64, 2-[(1R,4S,6S)-6-[5-cyclopropyl-3-(2,6-dichlorophenyl)-1,2-oxazole-4-carbonyloxy]-2-azabicyclo[2.2.1]heptan-2-yl]-4-fluoro-1,3-benzothiazole-6-carboxylic Acid]
- Emax [1]: 55%
- EC50 [1]: 501 nM
- pEC50 [2, 3]: >4.5

SMILES: O=C(O)c1cc(F)c2nc(N3C[C@H]4C[C@@H]3[C@H](OCc3c(-c5c(Cl)cccc5Cl)noc3C3CC3)C4)sc2c1 [Compound I-65, 2-[(1R,4S,6R)-6-{[5-cyclopropyl-3-(2,6-dichlorophenyl)-1,2-oxazol-4-yl]methoxy}-2-azabicyclo[2.2.1]heptan-2-yl]-4-fluoro-1,3-benzothiazole-6-carboxylic Acid]
- Emax [1]: 52%
- EC50 [1]: 100 nM
- pEC50 [2, 3]: 6.9
- Emax [2]: 45%

SMILES: N#Cc1cc(N2C[C@@H]3C[C@H]2C[C@H]3OCc2c(-c3c(Cl)cccc3Cl)noc2C2CC2)ccc1C(=O)O [Compound I-101, 2-Cyano-4-[(1S,4S,5R)-5-{[5-cyclopropyl-3-(2,6-dichlorophenyl)-1,2-oxazol-4-yl]methoxy}-2-azabicyclo[2.2.1]heptan-2-yl]benzoic Acid]
- Emax [1]: 113%
- EC50 [1]: 1 nM
- pEC50 [2, 3]: 9.8
- Emax [2, 4]: 137%
